From US8859768B2, “Heteroaryls and uses thereof” (Millennium Pharmaceuticals, Inc., priority 2010, dated 2014)

Molecular target: T1, Human VPS34 (Homo sapiens, UniProt Q8NEB9)
T1 construct: GST (N); host or cells: SF9 insect cells (baculovirus)
Assay: Human VPS34 Enzyme Assay (Adapta TR-FRET)
Format: biochemical
Conditions: compound at 1.111 μM; read-out: Average VPS34 % INH @ 1.111 μM
Procedure: VPS34 (accession number GB:BC033004) was cloned into pDEST20-Thombin as N-terminal GST tagged fusion proteins using the Gateway system (Invitrogen, catalog#11804-013). The sequences were verified before recombinant protein expression using the Baculovirus Expression System with Gateway® Technology.
For expression VPS34 was infected at 1MOI in SF9 cells and harvested 72 hours post infection.
For purification, VPS34 is purified by Glutathione Sepharose 4 Fast Flow (GE Healthcare #17-5132-03) followed by HiTrap Q (GE Healthcare #17-1153-01).
Human VPS34 Enzyme Assay Method
100 nL compounds in DMSO are added to wells of a 384 well microtitre plate (Greiner 780076). At room temperature: 5 ul VPS34 reaction buffer (Invitrogen Assay Buffer Q (diluted 1 in 5 with nanopure water) plus 2 mM DTT and 2 mM MnCl2) containing ATP (20 uM, Promega) and 200 uM PI-PS substrate (Invitrogen PV5122) is added followed immediately by 5 ul VPS34 reaction buffer (as above) containing VPS34 (5 nM, Millennium Protein Sciences Group) and the mixture is incubated with shaking at room temperature for 1 hour. Then 5 ul VPS34 stop-detect mix (as per Invitrogen Adapta Assay kit (PV5009) instructions (contains kinase quench buffer, TR-FRET buffer, Adapta Eu anti-ADP antibody and Alexa Fluor 647 ADP tracer)) is added to quench the reaction. The plates are then incubated for 30 minutes at room temperature with shaking and then read on a BMG PheraStar Plus reader.
3) VPS34 is assayed using Adapta™ Universal Kinase Assay Kit (Invitrogen).

T1 sequence (Q8NEB9 whole entry): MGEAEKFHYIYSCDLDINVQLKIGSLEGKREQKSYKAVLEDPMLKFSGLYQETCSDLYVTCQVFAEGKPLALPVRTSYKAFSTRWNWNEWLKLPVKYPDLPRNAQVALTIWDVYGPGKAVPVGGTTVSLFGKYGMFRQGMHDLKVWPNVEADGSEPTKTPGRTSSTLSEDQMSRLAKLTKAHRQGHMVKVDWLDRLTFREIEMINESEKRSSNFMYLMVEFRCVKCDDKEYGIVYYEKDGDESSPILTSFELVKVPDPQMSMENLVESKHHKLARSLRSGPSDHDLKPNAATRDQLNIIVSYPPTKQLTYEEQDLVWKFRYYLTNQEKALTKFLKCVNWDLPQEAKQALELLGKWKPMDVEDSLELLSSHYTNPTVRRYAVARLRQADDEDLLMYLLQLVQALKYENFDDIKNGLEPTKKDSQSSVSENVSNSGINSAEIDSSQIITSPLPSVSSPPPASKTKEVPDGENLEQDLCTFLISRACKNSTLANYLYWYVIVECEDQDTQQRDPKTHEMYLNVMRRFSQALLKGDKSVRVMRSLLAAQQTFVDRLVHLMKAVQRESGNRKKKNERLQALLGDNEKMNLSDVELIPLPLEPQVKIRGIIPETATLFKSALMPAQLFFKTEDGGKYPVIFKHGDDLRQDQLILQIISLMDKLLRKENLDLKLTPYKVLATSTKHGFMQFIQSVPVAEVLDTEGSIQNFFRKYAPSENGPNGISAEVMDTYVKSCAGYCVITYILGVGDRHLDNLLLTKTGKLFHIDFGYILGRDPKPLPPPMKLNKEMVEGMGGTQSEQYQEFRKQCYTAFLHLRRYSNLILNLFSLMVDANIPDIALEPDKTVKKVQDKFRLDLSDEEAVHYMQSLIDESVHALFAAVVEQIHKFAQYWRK

Compound | inhibition at 1.111 µM
CC(=O)Nc1cc(-c2nc(-c3ccccc3Cl)c(C(N)=O)o2)c(C)cn1 [Compound I-5, 2-[2-(acetylamino)-5-methylpyridin-4-yl]-4-(2-chlorophenyl)-1,3-oxazole-5-carboxamide] | 108%
CC(=O)Nc1cc(-c2cc(C(=O)NCCOCCO)c(-c3ccccc3Cl)o2)c(C)cn1 [Compound I-34, 5-(2-acetamido-5-methylpyridin-4-yl)-2-(2-chlorophenyl)-N-[2-(2-hydroxyethoxy)ethyl]-3-furamide] | 128%
CNC(=O)c1nc(-c2cc(NC(C)=O)ncc2C)oc1-c1ccccc1Cl [Compound I-52, 2-(2-acetamido-5-methylpyridin-4-yl)-5-(2-chlorophenyl)-N-methyl-1,3-oxazole-4-carboxamide] | 117%
CC(=O)Nc1cc(-c2cc(C(=O)NCc3cccnc3)c(-c3ccccc3Cl)o2)c(C)cn1 [Compound I-68, 5-(2-acetamido-5-methylpyridin-4-yl)-2-(2-chlorophenyl)-N-(pyridin-3-ylmethyl)-3-furamide] | 104%
CC(=O)Nc1cc(-c2cc(C(N)=O)c(-c3ccccc3Cl)o2)ccn1 [Compound I-1, 5-[2-(acetylamino)pyridin-4-yl]-2-(2-chlorophenyl)-3-furamide] | 120%
CC(=O)Nc1cc(-c2nc(C(=O)NCc3ccccn3)c(-c3ccccc3Cl)o2)c(C)cn1 [Compound I-20, 2-(2-acetamido-5-methylpyridin-4-yl)-5-(2-chlorophenyl)-N-(pyridin-2-ylmethyl)-1,3-oxazole-4-carboxamide] | 37%
CC(=O)Nc1cc(-c2cc(C(=O)Nc3ccccc3)c(-c3ccccc3Cl)o2)c(C)cn1 [Compound I-19, 5-(2-acetamido-5-methylpyridin-4-yl)-2-(2-chlorophenyl)-N-phenyl-3-furamide] | 48%
CC(=O)Nc1cc(-c2cc(-c3nnc[nH]3)c(-c3ccccc3Cl)o2)c(C)cn1 [Compound I-23, N-{4-[5-(2-chlorophenyl)-4-(4H-1,2,4-triazol-3-yl)-2-furyl]-5-methylpyridin-2-yl}acetamide] | 139%
CC(=O)Nc1cc(-c2nc(-c3nnc[nH]3)c(-c3ccccc3Cl)o2)c(C)cn1 [Compound I-4, N-{4-[5-(2-chlorophenyl)-4-(4H-1,2,4-triazol-3-yl)-1,3-oxazol-2-yl]-5-methylpyridin-2-yl}acetamide] | 118%
CC(=O)Nc1cc(-c2cc(C(=O)NCCC(C)C)c(-c3ccccc3Cl)o2)c(C)cn1 [Compound I-80, 5-(2-acetamido-5-methylpyridin-4-yl)-2-(2-chlorophenyl)-N-(3-methylbutyl)-3-furamide] | 92%
CC(=O)Nc1cc(-c2cc(C(=O)Nc3nccs3)c(-c3ccccc3Cl)o2)c(C)cn1 [Compound I-15, 5-(2-acetamido-5-methylpyridin-4-yl)-2-(2-chlorophenyl)-N-(1,3-thiazol-2-yl)-3-furamide] | 103%
CC(=O)Nc1cc(-c2cc(C(N)=O)c(-c3ccccc3Cl)o2)c(C)cn1 [Compound I-83, 5-(2-acetamido-5-methylpyridin-4-yl)-2-(2-chlorophenyl)-3-furamide] | 130%
CC(=O)Nc1cc(-c2cc(C(=O)O)c(-c3ccccc3Cl)o2)c(C)cn1 [Compound I-56, 5-(2-acetamido-5-methylpyridin-4-yl)-2-(2-chlorophenyl)-3-furoic acid] | 139%
CC(=O)Nc1cc(-c2nc(-c3ccccc3Cl)c(-c3ccccn3)o2)c(C)cn1 [Compound I-78, N-{4-[4-(2-chlorophenyl)-5-(pyridin-2-yl)-1,3-oxazol-2-yl]-5-methylpyridin-2-yl}acetamide] | 43%
CC(C)CC(=O)Nc1cc(-c2nc(-c3nnc[nH]3)c(-c3ccccc3Cl)o2)ccn1 [Compound I-65, N-{4-[5-(2-chlorophenyl)-4-(4H-1,2,4-triazol-3-yl)-1,3-oxazol-2-yl]pyridin-2-yl}-3-methylbutanamide] | 21%
CC(=O)Nc1cc(-c2cc(-c3nnc[nH]3)c(N3CCCC(N(C)C)C3)o2)c(C)cn1 (centres unmarked) [Compound I-26, N-(4-{5-[3-(dimethylamino)piperidin-1-yl]-4-(4H-1,2,4-triazol-3-yl)-2-furyl}-5-methylpyridin-2-yl)acetamide] | 129%

Compound | inhibition at 1.111 µM
CCC(=O)Nc1cc(-c2nc(-c3nnc[nH]3)c(-c3ccccc3Cl)o2)ccn1 [Compound I-75, N-{4-[5-(2-chlorophenyl)-4-(4H-1,2,4-triazol-3-yl)-1,3-oxazol-2-yl]pyridin-2-yl}propanamide] | 114%
CC(=O)Nc1cc(-c2nc(-c3cc(CN4CCCC4)ccc3Cl)c(-c3nnc[nH]3)o2)c(C)cn1 [Compound I-16, N-(4-{4-[2-chloro-5-(pyrrolidin-1-ylmethyl)phenyl]-5-(4H-1,2,4-triazol-3-yl)-1,3-oxazol-2-yl}-5-methylpyridin-2-yl)acetamide] | 131%
CC(=O)Nc1cc(-c2cc(C(=O)NCc3cccs3)c(-c3ccccc3Cl)o2)c(C)cn1 [Compound I-42, 5-(2-acetamido-5-methylpyridin-4-yl)-2-(2-chlorophenyl)-N-(2-thienylmethyl)-3-furamide] | 117%
CC(=O)Nc1cc(-c2nc(C(=O)NC3CCC3)c(-c3ccccc3Cl)o2)c(C)cn1 [Compound I-74, 2-(2-acetamido-5-methylpyridin-4-yl)-5-(2-chlorophenyl)-N-cyclobutyl-1,3-oxazole-4-carboxamide] | 28%
CC(=O)Nc1cc(-c2nc(-c3cc(CN4CCCC4)ccc3Cl)c(C(N)=O)o2)c(C)cn1 [Compound I-28, 2-(2-acetamido-5-methylpyridin-4-yl)-4-[2-chloro-5-(pyrrolidin-1-ylmethyl)phenyl]-1,3-oxazole-5-carboxamide] | 81%
CC(=O)Nc1cc(-c2nc(C(=O)NCCCn3ccnc3)c(-c3ccccc3Cl)o2)c(C)cn1 [Compound I-63, 2-(2-acetamido-5-methylpyridin-4-yl)-5-(2-chlorophenyl)-N-[3-(1H-imidazol-1-yl)propyl]-1,3-oxazole-4-carboxamide] | 14%
CC(=O)Nc1cc(-c2nc(C(=O)NCCn3ccnc3)c(-c3ccccc3Cl)o2)c(C)cn1 [Compound I-70, 2-(2-acetamido-5-methylpyridin-4-yl)-5-(2-chlorophenyl)-N-[2-(1H-imidazol-1-yl)ethyl]-1,3-oxazole-4-carboxamide] | 45%
CC(=O)Nc1cc(-c2nc(C(=O)NCc3ccccc3)c(-c3ccccc3Cl)o2)c(C)cn1 [Compound I-55, 2-(2-acetamido-5-methylpyridin-4-yl)-N-benzyl-5-(2-chlorophenyl)-1,3-oxazole-4-carboxamide] | 20%
CC(=O)Nc1cc(-c2cc(C(=O)NCCn3ccnc3)c(-c3ccccc3Cl)o2)c(C)cn1 [Compound I-12, 5-(2-acetamido-5-methylpyridin-4-yl)-2-(2-chlorophenyl)-N-[2-(1H-imidazol-1-yl)ethyl]-3-furamide] | 61%
Cc1cnc(NC(=O)C2CC2)cc1-c1nc(C(N)=O)c(-c2ccccc2Cl)o1 [Compound I-86, 5-(2-chlorophenyl)-2-{2-[(cyclopropylcarbonyl)amino]-5-methylpyridin-4-yl}-1,3-oxazole-4-carboxamide] | 117%
CC(=O)Nc1cc(-c2nc(C(N)=O)c(-c3ccccc3Cl)o2)c(C)cn1 [Compound I-3, 2-[2-(acetylamino)-5-methylpyridin-4-yl]-5-(2-chlorophenyl)-1,3-oxazole-4-carboxamide] | 112%
O=C(Nc1cc(-c2nc(-c3nnc[nH]3)c(-c3ccccc3Cl)o2)ccn1)C1CC1 [Compound I-18, N-{4-[5-(2-chlorophenyl)-4-(4H-1,2,4-triazol-3-yl)-1,3-oxazol-2-yl]pyridin-2-yl}cyclopropanecarboxamide] | 120%
CC(=O)Nc1cc(-c2cc(C(=O)NCc3ccc(N(C)C)cc3)c(-c3ccccc3Cl)o2)c(C)cn1 [Compound I-85, 5-(2-acetamido-5-methylpyridin-4-yl)-2-(2-chlorophenyl)-N-[4-(dimethylamino)benzyl]-3-furamide] | 56%
CC(=O)Nc1cc(-c2nc(C(=O)NC(C)C)c(-c3ccccc3Cl)o2)c(C)cn1 [Compound I-21, 2-(2-acetamido-5-methylpyridin-4-yl)-5-(2-chlorophenyl)-N-isopropyl-1,3-oxazole-4-carboxamide] | 25%
CC(=O)Nc1cc(-c2nc(C(=O)NCCOCCO)c(-c3ccccc3Cl)o2)c(C)cn1 [Compound I-25, 2-(2-acetamido-5-methylpyridin-4-yl)-5-(2-chlorophenyl)-N-[2-(2-hydroxyethoxy)ethyl]-1,3-oxazole-4-carboxamide] | 41%
CC(=O)Nc1cc(-c2nc(C(=O)NC[C@@H](C)O)c(-c3ccccc3Cl)o2)c(C)cn1 (stereo in doubt) [Compound I-62, 2-(2-acetamido-5-methylpyridin-4-yl)-5-(2-chlorophenyl)-N-(2-hydroxypropyl)-1,3-oxazole-4-carboxamide] | 51%
